# According to ChEMBL document CHEMBL3817819, “Development and application of ligand-based NMR screening assays for -butyrobetaine hydroxylase” (Medchemcomm, 2016):
# Calls of active or inactive are those of the source. The calls are words filed in the database; no cut-off is given here.
# Experiments:
# [1] = target: T1, Gamma-butyrobetaine dioxygenase (Pseudomonas sp. (strain AK-1)) (UniProt P80193); assay: Induction of GBB binding to Pseudomonas sp. AK1 BBOX at 25 uM in presence of Mn2+ by 1H NMR GBB/2OG dual reporter displacement assay
# T1 sequence (whole entry): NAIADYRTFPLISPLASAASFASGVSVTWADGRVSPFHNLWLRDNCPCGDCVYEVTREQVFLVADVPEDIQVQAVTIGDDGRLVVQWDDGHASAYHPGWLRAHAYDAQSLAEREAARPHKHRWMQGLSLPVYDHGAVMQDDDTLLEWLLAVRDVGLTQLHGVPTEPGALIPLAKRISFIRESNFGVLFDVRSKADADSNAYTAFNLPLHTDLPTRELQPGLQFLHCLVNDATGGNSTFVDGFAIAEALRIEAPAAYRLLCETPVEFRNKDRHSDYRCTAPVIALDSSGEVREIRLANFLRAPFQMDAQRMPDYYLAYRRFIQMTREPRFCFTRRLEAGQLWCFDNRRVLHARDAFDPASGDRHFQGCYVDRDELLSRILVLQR
# [2] = target: T2, Gamma-butyrobetaine dioxygenase (Pseudomonas sp. (strain AK-1), UniProt P80193); assay: Inhibition of Pseudomonas sp. AK1 BBOX using GBBF as substrate after 10 mins in presence of 2OG and Fe2+ using TBS-protected fluorescein probe by fluoride release assay
# T2 sequence (P80193 whole entry): T1 sequence (whole entry)
# [3] = target: T1, Gamma-butyrobetaine dioxygenase (Pseudomonas sp. (strain AK-1)); assay: Inhibition of 2OG binding to Pseudomonas sp. AK1 BBOX at 25 uM in presence of Mn2+ by 1H NMR GBB/2OG dual reporter displacement assay
# [4] = target: T2, Gamma-butyrobetaine dioxygenase; assay: Inhibition of Pseudomonas sp. AK1 BBOX assessed as hydroxylation of GBB to L-carnitine measured for 60 sec in presence of 2OG and Fe2+ by 1H NMR assay
# [5] = target: T1, Gamma-butyrobetaine dioxygenase (Pseudomonas sp. (strain AK-1)); assay: Inhibition of GBB binding to Pseudomonas sp. AK1 BBOX at 25 uM in presence of Mn2+ by 1H NMR GBB/2OG dual reporter displacement assay
# [6] = target: T2, Gamma-butyrobetaine dioxygenase; assay: Binding affinity to Pseudomonas sp. AK1 BBOX by intrinsic tryptophan fluorescence quenching assay
# [7] = target: T3, Gamma-butyrobetaine dioxygenase (Homo sapiens, UniProt O75936); assay: Inhibition of human BBOX using GBBF as substrate in presence of 2OG and Fe2+ using TBS-protected fluorescein probe by fluoride release assay
# T3 sequence (O75936 whole entry): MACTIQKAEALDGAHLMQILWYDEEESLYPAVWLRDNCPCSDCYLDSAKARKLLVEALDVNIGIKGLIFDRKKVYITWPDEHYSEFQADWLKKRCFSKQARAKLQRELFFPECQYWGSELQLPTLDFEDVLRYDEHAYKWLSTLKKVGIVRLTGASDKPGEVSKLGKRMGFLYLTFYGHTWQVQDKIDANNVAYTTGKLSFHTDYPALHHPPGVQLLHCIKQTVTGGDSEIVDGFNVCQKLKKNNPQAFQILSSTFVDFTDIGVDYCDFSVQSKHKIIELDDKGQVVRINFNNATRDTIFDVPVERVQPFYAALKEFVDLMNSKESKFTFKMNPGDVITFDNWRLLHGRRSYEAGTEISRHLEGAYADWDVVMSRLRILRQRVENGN
Activity [1],IC50 [2],inhibition [3],IC50 [4],inhibition [5],Kd [6],IC50 [7],Compound
Active,1.2 µM,Active,0.21 µM,inactive,22 µM,–,O=C(O)CNC(=O)c1nc(Cl)c2ccccc2c1O
–,125 µM,Active,26 µM,Active,55 µM,–,CC(C)C[C@H](NC(=O)c1nc(Cl)c2ccccc2c1O)C(=O)O
–,160 µM,–,38 µM,–,101 µM,–,O=C(O)C[C@@H](NC(=O)c1nc(Cl)c2ccccc2c1O)C(=O)O
–,> 1000 µM,inactive,86 µM,inactive,89 µM,–,O=C(O)CC[C@@H](NC(=O)c1nc(Cl)c2ccccc2c1O)C(=O)O
–,147 µM,–,22 µM,–,64 µM,–,O=C(O)CC[C@H](NC(=O)c1nc(Cl)c2ccccc2c1O)C(=O)O
–,> 1000 µM,inactive,94 µM,inactive,103 µM,–,CC(C)C[C@@H](NC(=O)c1nc(Cl)c2ccccc2c1O)C(=O)O
–,245 µM,Active,76 µM,inactive,91 µM,–,O=C(O)C[C@H](NC(=O)c1nc(Cl)c2ccccc2c1O)C(=O)O

# The next lines start with the compound.
Compound,Activity [1],IC50 [2],inhibition [3],IC50 [4],inhibition [5],Kd [6],IC50 [7]
CC(C)[C@@H](NC(=O)c1nc(Cl)c2ccccc2c1O)C(=O)O,–,> 1000 µM,inactive,191 µM,inactive,144 µM,–
O=C(N[C@H](Cc1ccccc1)C(=O)O)c1nc(Cl)c2ccccc2c1O,–,101 µM,–,38 µM,–,82 µM,–
O=C(N[C@@H](Cc1ccccc1)C(=O)O)c1nc(Cl)c2ccccc2c1O,–,13 µM,Active,1 µM,Active,26 µM,–
O=C(N[C@H](Cc1c[nH]c2ccccc12)C(=O)O)c1nc(Cl)c2ccccc2c1O,–,> 1000 µM,–,18 µM,–,168 µM,33 µM
O=C(N[C@@H](Cc1c[nH]c2ccccc12)C(=O)O)c1nc(Cl)c2ccccc2c1O,–,26 µM,Active,0.9 µM,Active,29 µM,11 µM
CC(C)[C@H](NC(=O)c1nc(Cl)c2ccccc2c1O)C(=O)O,–,130 µM,Active,23 µM,Active,55 µM,–
